# Measured values: patent US20230085307A1, “PYRIDAZINONE COMPOUND AND HERBICIDE” (NISSAN CHEMICAL CORPORATION, priority 2019, published 2023)
# Experiments:
# late watergrass = experiment: Test Example 1: herbicidal activity, application before weed generation under submerged conditions (Table 16, symbol A); assay type: in vivo, late watergrass (Echinochloa oryzicola); conditions: amount of applied herbicide 320 g/ha
# Procedure, shortened: (§1)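 Submerged Wagner pots (alluvial soil, 4 cm water) sown with weed seeds and planted with 2.5-leaf rice seedlings; emulsifiable concentrate diluted in water applied to water surface on sowing day. Held in greenhouse at 25-30 °C; injury scored 0-5 by herbicidal rate after three weeks.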
# Japanese bulrush = experiment: Test Example 1: herbicidal activity, application before weed generation under submerged conditions (Table 16, symbol B); assay type: in vivo, Japanese bulrush (Schoenoplectus juncoides); conditions: amount of applied herbicide 320 g/ha
# Procedure, shortened: as §1
# oval-leafed pondweed = experiment: Test Example 1: herbicidal activity, application before weed generation under submerged conditions (Table 16, symbol C); assay type: in vivo, oval-leafed pondweed (Monochoria vaginalis); conditions: amount of applied herbicide 320 g/ha
# Procedure, shortened: as §1
# barnyard grass [1] = experiment: Test Example 3: herbicidal effect by foliage application, Wagner pot (Table 18, symbol H); assay type: in vivo, barnyard grass (Echinochloa crus-galli); conditions: amount of applied herbicide 320 g/ha
# Procedure, shortened: (§2)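 Plants were sown in alluvial soil held under 0.1–0.5 cm standing water and grown 14 days in a greenhouse at 25–30 °C. An emulsifiable formulation, water-diluted to the set dose, was then sprayed onto the foliage, and effects were scored three weeks later using previously defined criteria.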
# Chinese sprangletop = experiment: Test Example 3: herbicidal effect by foliage application, Wagner pot (Table 18, symbol D); assay type: in vivo, chinese sprangletop (Leptochloa chinensis); conditions: amount of applied herbicide 320 g/ha
# Procedure, shortened: as §2
# rice flat sedge = experiment: Test Example 3: herbicidal effect by foliage application, Wagner pot (Table 18, symbol E); assay type: in vivo, rice flat sedge (Cyperus iria); conditions: amount of applied herbicide 320 g/ha
# Procedure, shortened: as §2
# southern crabgrass [2] = experiment: Test Example 4: herbicidal effect by soil treatment (Table 19, symbol F); assay type: in vivo, southern crabgrass (Digitaria ciliaris); conditions: amount of applied herbicide 320 g/ha
# Procedure, shortened: (§3)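 Pre-emergence style soil spray: seeds under ~1.5 cm sterilized diluvial soil received a uniform coat of emulsion diluted to the predetermined herbicide amount. Greenhouse 25–30° C; readout at week three on previously defined criteria.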
# green foxtail [3] = experiment: Test Example 4: herbicidal effect by soil treatment (Table 19, symbol G); assay type: in vivo, green foxtail (Setaria viridis); conditions: amount of applied herbicide 320 g/ha
# Procedure, shortened: as §3
# barnyard grass [4] = experiment: Test Example 4: herbicidal effect by soil treatment (Table 19, symbol H); assay type: in vivo, barnyard grass (Echinochloa crus-galli); conditions: amount of applied herbicide 320 g/ha
# Procedure, shortened: as §3
# wild oat [5] = experiment: Test Example 4: herbicidal effect by soil treatment (Table 19, symbol I); assay type: in vivo, wild oat (Avena fatua); conditions: amount of applied herbicide 320 g/ha
# Procedure, shortened: as §3
# blackgrass [6] = experiment: Test Example 4: herbicidal effect by soil treatment (Table 19, symbol J); assay type: in vivo, blackgrass (Alopecurus myosuroides); conditions: amount of applied herbicide 320 g/ha
# Procedure, shortened: as §3
# Italian ryegrass [7] = experiment: Test Example 4: herbicidal effect by soil treatment (Table 19, symbol K); assay type: in vivo, Italian ryegrass (Lolium multiflorum); conditions: amount of applied herbicide 320 g/ha
# Procedure, shortened: as §3
# windgrass [8] = experiment: Test Example 4: herbicidal effect by soil treatment (Table 19, symbol L); assay type: in vivo, windgrass (Apera spica-venti); conditions: amount of applied herbicide 320 g/ha
# Procedure, shortened: as §3
# velvetleaf [9] = experiment: Test Example 4: herbicidal effect by soil treatment (Table 19, symbol M); assay type: in vivo, velvetleaf (Abutilon theophrasti); conditions: amount of applied herbicide 320 g/ha
# Procedure, shortened: as §3
# redroot pigweed [10] = experiment: Test Example 4: herbicidal effect by soil treatment (Table 19, symbol N); assay type: in vivo, redroot pigweed (Amaranthus retroflexus); conditions: amount of applied herbicide 320 g/ha
# Procedure, shortened: as §3
# lambsquarters [11] = experiment: Test Example 4: herbicidal effect by soil treatment (Table 19, symbol O); assay type: in vivo, lambsquarters (Chenopodium album); conditions: amount of applied herbicide 320 g/ha
# Procedure, shortened: as §3
# chickweed [12] = experiment: Test Example 4: herbicidal effect by soil treatment (Table 19, symbol P); assay type: in vivo, common chickweed (Stellaria media); conditions: amount of applied herbicide 320 g/ha
# Procedure, shortened: as §3
# false cleavers = experiment: Test Example 4: herbicidal effect by soil treatment (Table 19, symbol Q); assay type: in vivo, false cleavers (Galium spurium); conditions: amount of applied herbicide 320 g/ha
# Procedure, shortened: as §3
# persian speedwell [13] = experiment: Test Example 4: herbicidal effect by soil treatment (Table 19, symbol R); assay type: in vivo, Persian speedwell (Veronica persica); conditions: amount of applied herbicide 320 g/ha
# Procedure, shortened: as §3
# southern crabgrass [14] = experiment: Test Example 5: herbicidal effect by foliage application, plastic box (Table 20, symbol F); assay type: in vivo, southern crabgrass (Digitaria ciliaris); conditions: foliage application, 320 g/ha, three weeks after application
# Procedure, shortened: (§4)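 Plants were sown into sterilized diluvial soil under about 1.5 cm cover and kept in a greenhouse at 25° C. to 30° C. Fourteen days on, foliage received an even spray of the diluted emulsion. Herbicidal or crop effect was judged three weeks afterwards.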
# green foxtail [15] = experiment: Test Example 5: herbicidal effect by foliage application, plastic box (Table 20, symbol G); assay type: in vivo, green foxtail (Setaria viridis); conditions: foliage application, 320 g/ha, three weeks after application
# Procedure, shortened: as §4
# barnyard grass [16] = experiment: Test Example 5: herbicidal effect by foliage application, plastic box (Table 20, symbol H); assay type: in vivo, barnyard grass (Echinochloa crus-galli); conditions: foliage application, 320 g/ha, three weeks after application
# Procedure, shortened: as §4
# wild oat [17] = experiment: Test Example 5: herbicidal effect by foliage application, plastic box (Table 20, symbol I); assay type: in vivo, wild oat (Avena fatua); conditions: foliage application, 320 g/ha, three weeks after application
# Procedure, shortened: as §4
# blackgrass [18] = experiment: Test Example 5: herbicidal effect by foliage application, plastic box (Table 20, symbol J); assay type: in vivo, blackgrass (Alopecurus myosuroides); conditions: foliage application, 320 g/ha, three weeks after application
# Procedure, shortened: as §4
# Italian ryegrass [19] = experiment: Test Example 5: herbicidal effect by foliage application, plastic box (Table 20, symbol K); assay type: in vivo, Italian ryegrass (Lolium multiflorum); conditions: foliage application, 320 g/ha, three weeks after application
# Procedure, shortened: as §4
# windgrass [20] = experiment: Test Example 5: herbicidal effect by foliage application, plastic box (Table 20, symbol L); assay type: in vivo, windgrass (Apera spica-venti); conditions: foliage application, 320 g/ha, three weeks after application
# Procedure, shortened: as §4
# velvetleaf [21] = experiment: Test Example 5: herbicidal effect by foliage application, plastic box (Table 20, symbol M); assay type: in vivo, velvetleaf (Abutilon theophrasti); conditions: foliage application, 320 g/ha, three weeks after application
# Procedure, shortened: as §4
# lambsquarters [22] = experiment: Test Example 5: herbicidal effect by foliage application, plastic box (Table 20, symbol O); assay type: in vivo, lambsquarters (Chenopodium album); conditions: foliage application, 320 g/ha, three weeks after application
# Procedure, shortened: as §4
# persian speedwell [23] = experiment: Test Example 5: herbicidal effect by foliage application, plastic box (Table 20, symbol R); assay type: in vivo, Persian speedwell (Veronica persica); conditions: foliage application, 320 g/ha, three weeks after application
# Procedure, shortened: as §4
# redroot pigweed [24] = experiment: Test Example 5: herbicidal effect by foliage application, plastic box (Table 20, symbol N); assay type: in vivo, redroot pigweed (Amaranthus retroflexus); conditions: foliage application, 320 g/ha, three weeks after application
# Procedure, shortened: as §4
# chickweed [25] = experiment: Test Example 5: herbicidal effect by foliage application, plastic box (Table 20, symbol P); assay type: in vivo, common chickweed (Stellaria media); conditions: foliage application, 320 g/ha, three weeks after application
# Procedure, shortened: as §4
structure (smiles),measurement,setting,value
Cc1nn(C)c(=O)c(-c2c(-c3ccc(OCC(F)(F)F)cc3)oc3ccc(F)cc23)c1O [9-035],"Herbicidal effect, A: late watergrass",late watergrass,2 (Herbicidal rate of 20% or more and less than 40%)
same,"Herbicidal effect, B: Japanese bulrush",Japanese bulrush,0 (Herbicidal rate of 5% or less (almost no effect))
same,"Herbicidal effect, C: oval-leafed pondweed",oval-leafed pondweed,0 (Herbicidal rate of 5% or less (almost no effect))
same,"Herbicidal effect on H (barnyard grass), foliage application",barnyard grass [1],5 (Herbicidal rate of 90% or more (almost completely withered))
same,"Herbicidal effect on D (Chinese sprangletop), foliage application",Chinese sprangletop,3 (Herbicidal rate of 40% or more and less than 70%)
same,"Herbicidal effect on E (rice flat sedge), foliage application",rice flat sedge,5 (Herbicidal rate of 90% or more (almost completely withered))
same,"F: southern crabgrass, herbicidal effect grade",southern crabgrass [2],5 (Herbicidal rate of 90% or more (almost completely withered))
same,"G: green foxtail, herbicidal effect grade",green foxtail [3],5 (Herbicidal rate of 90% or more (almost completely withered))
same,"H: barnyard grass, herbicidal effect grade",barnyard grass [4],5 (Herbicidal rate of 90% or more (almost completely withered))
same,"I: wild oat, herbicidal effect grade",wild oat [5],2 (Herbicidal rate of 20% or more and less than 40%)
same,"J: blackgrass, herbicidal effect grade",blackgrass [6],5 (Herbicidal rate of 90% or more (almost completely withered))
same,"K: Italian ryegrass, herbicidal effect grade",Italian ryegrass [7],5 (Herbicidal rate of 90% or more (almost completely withered))
same,"L: windgrass, herbicidal effect grade",windgrass [8],5 (Herbicidal rate of 90% or more (almost completely withered))
same,"M: velvetleaf, herbicidal effect grade",velvetleaf [9],4 (Herbicidal rate of 70% or more and less than 90%)
same,"N: redroot pigweed, herbicidal effect grade",redroot pigweed [10],5 (Herbicidal rate of 90% or more (almost completely withered))
same,"O: lambsquarters, herbicidal effect grade",lambsquarters [11],5 (Herbicidal rate of 90% or more (almost completely withered))
same,"P: chickweed, herbicidal effect grade",chickweed [12],5 (Herbicidal rate of 90% or more (almost completely withered))
same,"Q: false cleavers, herbicidal effect grade",false cleavers,3 (Herbicidal rate of 40% or more and less than 70%)
same,"R: persian speedwell, herbicidal effect grade",persian speedwell [13],5 (Herbicidal rate of 90% or more (almost completely withered))
same,herbicidal effect on southern crabgrass (F),southern crabgrass [14],5 (Herbicidal rate of 90% or more (almost completely withered))
same,herbicidal effect on green foxtail (G),green foxtail [15],5 (Herbicidal rate of 90% or more (almost completely withered))
same,herbicidal effect on barnyard grass (H),barnyard grass [16],5 (Herbicidal rate of 90% or more (almost completely withered))
same,herbicidal effect on wild oat (I),wild oat [17],5 (Herbicidal rate of 90% or more (almost completely withered))
same,herbicidal effect on blackgrass (J),blackgrass [18],5 (Herbicidal rate of 90% or more (almost completely withered))
same,herbicidal effect on Italian ryegrass (K),Italian ryegrass [19],5 (Herbicidal rate of 90% or more (almost completely withered))
same,herbicidal effect on windgrass (L),windgrass [20],5 (Herbicidal rate of 90% or more (almost completely withered))
same,herbicidal effect on velvetleaf (M),velvetleaf [21],5 (Herbicidal rate of 90% or more (almost completely withered))
same,herbicidal effect on lambsquarters (O),lambsquarters [22],4 (Herbicidal rate of 70% or more and less than 90%)
same,herbicidal effect on persian speedwell (R),persian speedwell [23],5 (Herbicidal rate of 90% or more (almost completely withered))
COc1ccccc1-c1sc2ccc(F)cc2c1-c1c(O)c(C)nn(CC#N)c1=O [2-431],"Herbicidal effect, A: late watergrass",late watergrass,2 (Herbicidal rate of 20% or more and less than 40%)
same,"Herbicidal effect, B: Japanese bulrush",Japanese bulrush,0 (Herbicidal rate of 5% or less (almost no effect))
same,"Herbicidal effect, C: oval-leafed pondweed",oval-leafed pondweed,0 (Herbicidal rate of 5% or less (almost no effect))
same,herbicidal effect on H: barnyard grass,barnyard grass [1],5 (Herbicidal rate of 90% or more (almost completely withered))
same,herbicidal effect on D: Chinese sprangletop,Chinese sprangletop,3 (Herbicidal rate of 40% or more and less than 70%)
same,herbicidal effect on E: rice flat sedge,rice flat sedge,5 (Herbicidal rate of 90% or more (almost completely withered))
same,"herbicidal effect, F: southern crabgrass",southern crabgrass [2],0 (Herbicidal rate of 5% or less (almost no effect))
same,"herbicidal effect, G: green foxtail",green foxtail [3],0 (Herbicidal rate of 5% or less (almost no effect))
same,"herbicidal effect, H: barnyard grass",barnyard grass [4],0 (Herbicidal rate of 5% or less (almost no effect))
same,"herbicidal effect, I: wild oat",wild oat [5],0 (Herbicidal rate of 5% or less (almost no effect))
same,"herbicidal effect, J: blackgrass",blackgrass [6],0 (Herbicidal rate of 5% or less (almost no effect))
same,"herbicidal effect, K: Italian ryegrass",Italian ryegrass [7],0 (Herbicidal rate of 5% or less (almost no effect))
same,"herbicidal effect, L: windgrass",windgrass [8],0 (Herbicidal rate of 5% or less (almost no effect))
same,"herbicidal effect, M: velvetleaf",velvetleaf [9],1 (Herbicidal rate of 5% or more and less than 20%)
same,"herbicidal effect, N: redroot pigweed",redroot pigweed [10],5 (Herbicidal rate of 90% or more (almost completely withered))
same,"herbicidal effect, O: lambsquarters",lambsquarters [11],1 (Herbicidal rate of 5% or more and less than 20%)
same,"herbicidal effect, Q: false cleavers",false cleavers,0 (Herbicidal rate of 5% or less (almost no effect))
same,"herbicidal effect, R: persian speedwell",persian speedwell [13],0 (Herbicidal rate of 5% or less (almost no effect))
same,"F: southern crabgrass, herbicidal effect grade",southern crabgrass [14],0 (Herbicidal rate of 5% or less (almost no effect))
same,"G: green foxtail, herbicidal effect grade",green foxtail [15],0 (Herbicidal rate of 5% or less (almost no effect))
same,"H: barnyard grass, herbicidal effect grade",barnyard grass [16],0 (Herbicidal rate of 5% or less (almost no effect))
same,"I: wild oat, herbicidal effect grade",wild oat [17],0 (Herbicidal rate of 5% or less (almost no effect))
same,"J: blackgrass, herbicidal effect grade",blackgrass [18],0 (Herbicidal rate of 5% or less (almost no effect))
same,"K: Italian ryegrass, herbicidal effect grade",Italian ryegrass [19],0 (Herbicidal rate of 5% or less (almost no effect))
same,"L: windgrass, herbicidal effect grade",windgrass [20],0 (Herbicidal rate of 5% or less (almost no effect))
same,"M: velvetleaf, herbicidal effect grade",velvetleaf [21],2 (Herbicidal rate of 20% or more and less than 40%)
same,"N: redroot pigweed, herbicidal effect grade",redroot pigweed [24],3 (Herbicidal rate of 40% or more and less than 70%)
same,"O: lambsquarters, herbicidal effect grade",lambsquarters [22],1 (Herbicidal rate of 5% or more and less than 20%)
same,"P: chickweed, herbicidal effect grade",chickweed [25],5 (Herbicidal rate of 90% or more (almost completely withered))
same,"R: persian speedwell, herbicidal effect grade",persian speedwell [23],3 (Herbicidal rate of 40% or more and less than 70%)
